Data from US9585879B2, “Heterocyclic GSK-3 allosteric modulators” (Consejo Superior de Investigaciones Cientificas (CSIC), priority 2011, dated 2017).
Like-named read-outs stand apart in the source and are kept apart here.

Tests used:
GSK-3β [1] = assay type: biochemical, human
Experimental: The ATP concentrations were varied from 1 to 50 µM, whereas the concentration of the GS-2 peptide was kept constant at 12.5 µM. The concentrations of inhibitor (compound 6) used are shown in the plot.
The kinetic studies conducted by varying the ATP concentration from 1 to 50µM, and the concentration of inhibitor 6 from 5 to 10µM, were performed using the ADP-Glo™ Kinase Assay.

GSK-3β [2] = assay type: biochemical, human; remark: listed apart in the source
Experimental: The GS-2 concentrations were varied from 15.5 to 100 µM, whereas the ATP concentration was kept constant at 1 µM. The concentrations of inhibitor (compound 6) used are shown in the plot.
On the other hand, we also studied the dependence of GSK-3β activity in the presence of these inhibitors as a function of the concentration of the substrate, the GS-2 peptide, used in the assays.

GSK-3β [3] = assay: Study of the inhibition of GSK-3β as a function of enzyme-inhibitor pre-incubation time; assay type: biochemical, human
Experimental: In order to determine the binding mode of these compounds, different kinetic studies were performed, varying the reaction times and the ATP concentration and the substrate concentration.

[4] = target: recombinant human GSK3 enzyme (GSK-3β); assay type: biochemical; conditions: Kinase-Glo, 1 μM ATP, 25 μM substrate, 30 min at 30 °C
Experimental: Measurement of the Inhibition of GSK-3β
The enzyme inhibition assays were performed using the luminometric methodology of kinase-Glo®. The recombinant human GSK3 enzyme (catalogue no. 14-306) was acquired from Upstate (Dundee, UK). The prephosphorylated polypeptide was synthesised by American Peptide Inc. (Sunnyvale, Calif.). The luminescent kinase kit (catalogue no. V6711) was obtained from Promega. The ATP and the other reagents were purchased from Sigma-Aldrich (St. Louis, Mo.).
The assays were performed in buffer using 96-well plates. 10µl of the compound to be assayed (dissolved in DMSO at a concentration of 1 mM, and, in turn, dissolved in buffer to the concentration necessary for the experiment) and 10µl (20 ng) of the enzyme are added to each well, followed by 20µl of buffer containing 25µM of the substrate and 1µM of ATP. […] Following a half-hour incubation at 30° C., the enzymatic reaction is stopped with 40µl of the kinase-Glo® reagent. The luminescence is measured after ten minutes, using a POLARstar Optima multimode reader. The activity is proportional to the difference between the total ATP and the ATP consumed. The inhibitory activities were calculated as a function of the maximum activity, measured in the absence of inhibitor.

[5] = GS-2 15.5 to 100 μM, ATP 1 μM, inhibitor 5 to 10 μM

| SMILES | Michaelis-Menten constant (Km) in the presence of the inhibitor (GSK-3β [1]) | mode of inhibition with respect to ATP (GSK-3β [1]; ATP 1 to 50 μM, GS-2 12.5 μM, inhibitor 5 to 10 μM) | maximum enzyme activity (Vmax) in the presence of the inhibitor (GSK-3β [1]; ATP 1 to 50 μM, inhibitor 5 to 10 μM) | Michaelis-Menten constant (Km) in the presence of the inhibitor (GSK-3β [2]) | maximum enzyme activity (Vmax) in the presence of the inhibitor (GSK-3β [2]; [5]) | mode of inhibition with respect to substrate GS-2 (GSK-3β [2]; [5]) | % inhibition of GSK-3β (GSK-3β [3]; [Comp. 6] 5 μM, pre-incubation time E + I 0 min) [%] | % inhibition of GSK-3β (GSK-3β [3]; [Comp. 6] 5 μM, pre-incubation time E + I 5 min) [%] | % inhibition of GSK-3β (GSK-3β [3]; [Comp. 6] 5 μM, pre-incubation time E + I 10 min) [%] | % inhibition of GSK-3β (GSK-3β [3]; [Comp. 6] 10 μM, pre-incubation time E + I 0 min) [%] | % inhibition of GSK-3β (GSK-3β [3]; [Comp. 6] 10 μM, pre-incubation time E + I 5 min) [%] | % inhibition of GSK-3β (GSK-3β [3]; [Comp. 6] 10 μM, pre-incubation time E + I 10 min) [%] | reversibility of GSK-3β inhibition (GSK-3β [3]; different enzyme incubation times, two inhibitor concentrations) | IC50 [4] [µM] |
| --- | --- | --- | --- | --- | --- | --- | --- | --- | --- | --- | --- | --- | --- | --- |
| CCCCCCCCCCCC(=O)NNC(=O)c1c(O)c2ccccc2n(CC)c1=O [Compound 6, N′-Dodecanoyl-1-ethyl-4-hydroxy-2-oxo-1,2-dihydroquinoline-3-carbohydrazide] | remains invariable | non-ATP-competitive inhibitor | decreases | remains invariable | decreases | substrate-non-competitive inhibitor | 27.42 | 30.31 | 30.18 | 61.4 | 63.04 | 62.26 | reversible inhibitor | – |
| CCCCCCCCCCCC(=O)NNC(=O)c1c(O)c2ccccc2n(C)c1=O [Compound 4, N′-Dodecanoyl-4-hydroxy-1-methyl-2-oxo-1,2-dihydroquinoline-3-carbohydrazide] | – | – | – | – | – | – | – | – | – | – | – | – | – | 7.35 ± 0.23 |
| CCCCCCCCCCCC(=O)N(Cc1ccccc1)NC(=O)c1c(O)c2ccccc2n(Cc2ccccc2)c1=O [Compound 63, N′,1-Dibenzyl-N′-dodecanoyl-4-hydroxy-2-oxo-1,2-dihydroquinoline-3-carbohydrazide] | – | – | – | – | – | – | – | – | – | – | – | – | – | 6.84 ± 0.51 |
